Measurements reported in patent US20250319032A1, “PHARMACEUTICAL COMPOSITIONS OF RIBOCICLIB” (Novartis AG, priority 2024, published 2025).

Assay: Nitrite content (ion chromatography; LC-FLD with DAN derivatisation; Griess test) in drug substance, intermediates, reagents, solvents, filters, excipients
Format: physicochemical
Set-up: Nitrite content T0 (enhanced method): unit: ppm
Conditions: drug substance manufactured at Menges, T0
Text: The method of testing for the presence and/or total amount of nitrites that is used in the methods of the invention may be any method which allows for the detection and/or quantitation of nitrites in a composition. For example, the method may be the Griess test. The Griess test allows for the detection and analysis of nitrite by the formation of a red-pink colour upon treatment of a nitrite-containing sample with the Griess reagent. The Griess reagent consists of two components in an acidic solution: an aniline derivative and a coupling agent. The most common arrangements use sulfanilamide and N-(1-naphthyl)ethylenediamine. For example 0.2% N-(1-naphthyl)ethylenediamine dihydrochloride and 2% sulfanilamide in 5% phosphoric acid may be used as a Griess reagent. Other aniline derivatives that may be used in a Griess reagent include sulfanilic acid, nitroaniline, and p-aminoacetophenone.
The Griess test involves two subsequent reactions, as shown in the scheme below. When the aniline derivative (e.g., sulfanilamide) is added, the nitrite ion reacts with it in the Griess diazotization reaction to form a diazonium salt, which then reacts with N-(1-naphthyl)ethylenediamine in an azo-coupling reaction, forming a pink-red azo-dye. Using a spectrophotometer, the nitrite concentration can then be quantitatively detected.
Additionally purified water; e.g. Milli Q • 2.
• 10 mM KH2PO4 Weigh accurately about 1.361 g of KH2PO4 into a 1 L volumetric flask, dissolve it in approximately 950 mL of additionally purified water and adjust the pH to 8.0 (with 2.7 M NaOH). Make up to the mark with additionally purified water. • 0.62 M HCl Add a few millilitres (e.g. 20 mL) of additionally purified water to a 200 mL volumetric flask, add 10.280 mL of concentrated HCl, mix and make up to the mark with additionally purified water. • 2.7 M NaOH Weigh accurately about 1.092 g of NaOH pellets into a 10 mL volumetric flask and dissolve it in additionally purified water. Cool to room temperature and make up to the mark with the same solvent. • Reagent DAN Weigh accurately about 5 mg of 2,3-diaminophthalene into a 100 mL volumetric flask and dissolve it with the solvent (methanol/water 1:1 (v/v)). Dilute up to the mark and ensure visual full dissolution. Use an amberglass flask. • Mobile phase A Mix 950 mL of 10 mM KH2PO4 solution (pH=8) and add 50 mL methanol. • Mobile phase B Methanol. • Solvent Methanol/water 1:1 (v/v), e.g. mix 2000 mL of additionally purified water and 2000 mL methanol.
• Instrument: HPLC with FLR detector; e.g. Waters Arc or equivalent • Column: C18 50×4.6 mm, 2.5 μm, e.g. XBridge C18 2.5 μm, 4.650 mm or equivalent
• Notes It is recommended to wear additional protective equipment (face mask and gloves) during weighing. • It is recommended to wash the column with 50% methanol after the analysis (example of preparation: mix 500 mL methanol and 500 m1 of additionally purified water). • It is recommended to rinse the injector with solvent after each injection. • All glassware and tools should be rinsed with additionally purified water before use. It is not recommended to leave the solutions open for a longer time before measurement. • Blank solution 1 Transfer 1 mL of solvent into a HPLC vial and perform derivatization as described below. • Blank solution 2 Transfer 10 mL of solvent into a single use glass vial and mix it on a magnetic stirrer for 30 min. Transfer the solution into a 5 mL centrifuge tube and centrifuge for 10 min at 12000 rpm. […] Fill up to the mark with solvent and mix. • (Cnitrite≈0.0005 mg/mL) • Comparison solution Transfer 10 mL of nitrite stock solution into a 500 mL volumetric flask. • (2 parallels) Fill up to the mark with solvent and mix. • Transfer 1 mL solution into a HPLC vial and perform the derivatization as described below. • (Cnitrite≈100 ppb) • Sample solution Accurately weigh about 1000 mg of the sample into a glass vial for single use and add 10 mL of solvent.

| Compound | Nitrite content T0 (enhanced method) |
| --- | --- |
| CN(C)C(=O)c1cc2cnc(Nc3ccc(N4CCNCC4)cn3)nc2n1C1CCCC1.O=C(O)CCC(=O)O [Batch B692472] | 0.1 |
| CN(C)C(=O)c1cc2cnc(Nc3ccc(N4CCNCC4)cn3)nc2n1C1CCCC1.O=C(O)CCC(=O)O [Batch B695104] | 0.5 |
| CN(C)C(=O)c1cc2cnc(Nc3ccc(N4CCNCC4)cn3)nc2n1C1CCCC1.O=C(O)CCC(=O)O [Batch B695106] | 0.1 |
| CN(C)C(=O)c1cc2cnc(Nc3ccc(N4CCNCC4)cn3)nc2n1C1CCCC1.O=C(O)CCC(=O)O [Batch B696587] | <0.1 |
| CN(C)C(=O)c1cc2cnc(Nc3ccc(N4CCNCC4)cn3)nc2n1C1CCCC1.O=C(O)CCC(=O)O [Batch B711867] | <0.1 |

Same assay, conditions: ribociclib base (LEE011 B10), ion chromatography

| Compound | Nitrite [ppm] LOD (1 ppm) |
| --- | --- |
| CN(C)C(=O)c1cc2cnc(Nc3ccc(N4CCNCC4)cn3)nc2n1C1CCCC1 [Batch B685591] | <LOD |
| CN(C)C(=O)c1cc2cnc(Nc3ccc(N4CCNCC4)cn3)nc2n1C1CCCC1 [Batch B687416] | <LOD |

Same assay, conditions: ribociclib succinate drug substance batches at release

| Compound | Nitrite NAP method (ppm) | Nitrite NAT enhanced sample prep. (ppm) |
| --- | --- | --- |
| CN(C)C(=O)c1cc2cnc(Nc3ccc(N4CCNCC4)cn3)nc2n1C1CCCC1.O=C(O)CCC(=O)O [Batch B692472] | 0.2 ppm | 0.1 ppm |
| CN(C)C(=O)c1cc2cnc(Nc3ccc(N4CCNCC4)cn3)nc2n1C1CCCC1.O=C(O)CCC(=O)O [Batch B695104] | 0.3 ppm | 0.5 ppm |
| CN(C)C(=O)c1cc2cnc(Nc3ccc(N4CCNCC4)cn3)nc2n1C1CCCC1.O=C(O)CCC(=O)O [Batch B695105] | 0.3 ppm | 0.3 ppm |
| CN(C)C(=O)c1cc2cnc(Nc3ccc(N4CCNCC4)cn3)nc2n1C1CCCC1.O=C(O)CCC(=O)O [Batch B695106] | 0.2 ppm | 0.1 ppm |
| CN(C)C(=O)c1cc2cnc(Nc3ccc(N4CCNCC4)cn3)nc2n1C1CCCC1.O=C(O)CCC(=O)O [Batch B696587] | 0.2 ppm | <0.1 ppm |
| CN(C)C(=O)c1cc2cnc(Nc3ccc(N4CCNCC4)cn3)nc2n1C1CCCC1.O=C(O)CCC(=O)O [Batch B696588] | 0.2 ppm | 0.1 ppm |
| CN(C)C(=O)c1cc2cnc(Nc3ccc(N4CCNCC4)cn3)nc2n1C1CCCC1.O=C(O)CCC(=O)O [Batch B696589] | 0.2 ppm | <0.1 ppm |
| CN(C)C(=O)c1cc2cnc(Nc3ccc(N4CCNCC4)cn3)nc2n1C1CCCC1.O=C(O)CCC(=O)O [Batch B696590] | 0.3 ppm | 0.4 ppm |
| CN(C)C(=O)c1cc2cnc(Nc3ccc(N4CCNCC4)cn3)nc2n1C1CCCC1.O=C(O)CCC(=O)O [Batch B698293] | 0.3 ppm | 0.4 ppm |
| CN(C)C(=O)c1cc2cnc(Nc3ccc(N4CCNCC4)cn3)nc2n1C1CCCC1.O=C(O)CCC(=O)O [Batch B698294] | 0.2 ppm | 0.2 ppm |
| CN(C)C(=O)c1cc2cnc(Nc3ccc(N4CCNCC4)cn3)nc2n1C1CCCC1.O=C(O)CCC(=O)O [Batch B698295] | 0.3 ppm | 0.4 ppm |
| CN(C)C(=O)c1cc2cnc(Nc3ccc(N4CCNCC4)cn3)nc2n1C1CCCC1.O=C(O)CCC(=O)O [Batch B698296] | 0.4 ppm | 0.3 ppm |
| CN(C)C(=O)c1cc2cnc(Nc3ccc(N4CCNCC4)cn3)nc2n1C1CCCC1.O=C(O)CCC(=O)O [Batch B698297] | 0.2 ppm | 0.1 ppm |
| CN(C)C(=O)c1cc2cnc(Nc3ccc(N4CCNCC4)cn3)nc2n1C1CCCC1.O=C(O)CCC(=O)O [Batch B698298] | 0.2 ppm | <0.1 ppm |
| CN(C)C(=O)c1cc2cnc(Nc3ccc(N4CCNCC4)cn3)nc2n1C1CCCC1.O=C(O)CCC(=O)O [Batch B699003] | 0.1 ppm | <0.1 ppm |
| CN(C)C(=O)c1cc2cnc(Nc3ccc(N4CCNCC4)cn3)nc2n1C1CCCC1.O=C(O)CCC(=O)O [Batch B707657] | 0.2 ppm | 0.1 ppm |
| CN(C)C(=O)c1cc2cnc(Nc3ccc(N4CCNCC4)cn3)nc2n1C1CCCC1.O=C(O)CCC(=O)O [Batch B708687] | 0.2 ppm | <0.1 ppm |
| CN(C)C(=O)c1cc2cnc(Nc3ccc(N4CCNCC4)cn3)nc2n1C1CCCC1.O=C(O)CCC(=O)O [Batch B708688] | 0.2 ppm | <0.1 ppm |
| CN(C)C(=O)c1cc2cnc(Nc3ccc(N4CCNCC4)cn3)nc2n1C1CCCC1.O=C(O)CCC(=O)O [Batch B709049] | 0.2 ppm | <0.1 ppm |
| CN(C)C(=O)c1cc2cnc(Nc3ccc(N4CCNCC4)cn3)nc2n1C1CCCC1.O=C(O)CCC(=O)O [Batch B709050] | 0.2 ppm | 0.1 ppm |
| CN(C)C(=O)c1cc2cnc(Nc3ccc(N4CCNCC4)cn3)nc2n1C1CCCC1.O=C(O)CCC(=O)O [Batch B709051] | 0.2 ppm | <0.1 ppm |
| CN(C)C(=O)c1cc2cnc(Nc3ccc(N4CCNCC4)cn3)nc2n1C1CCCC1.O=C(O)CCC(=O)O [Batch B709938] | 0.2 ppm | <0.1 ppm |
| CN(C)C(=O)c1cc2cnc(Nc3ccc(N4CCNCC4)cn3)nc2n1C1CCCC1.O=C(O)CCC(=O)O [Batch B711867] | 0.1 ppm | 0.1 ppm |

More lines, now with the values ahead:

| Nitrite NAP method (ppm) | Nitrite NAT enhanced sample prep. (ppm) | Compound |
| --- | --- | --- |
| 0.2 ppm | <0.1 ppm | CN(C)C(=O)c1cc2cnc(Nc3ccc(N4CCNCC4)cn3)nc2n1C1CCCC1.O=C(O)CCC(=O)O [Batch B709939] |
| 0.2 ppm | <0.1 ppm | CN(C)C(=O)c1cc2cnc(Nc3ccc(N4CCNCC4)cn3)nc2n1C1CCCC1.O=C(O)CCC(=O)O [Batch B709940] |
| 0.1 ppm | 0.1 ppm | CN(C)C(=O)c1cc2cnc(Nc3ccc(N4CCNCC4)cn3)nc2n1C1CCCC1.O=C(O)CCC(=O)O [Batch B709941] |
| 0.2 ppm | 1.6 ppm | CN(C)C(=O)c1cc2cnc(Nc3ccc(N4CCNCC4)cn3)nc2n1C1CCCC1.O=C(O)CCC(=O)O [Batch B710665] |
| 0.5 ppm | <0.1 ppm | CN(C)C(=O)c1cc2cnc(Nc3ccc(N4CCNCC4)cn3)nc2n1C1CCCC1.O=C(O)CCC(=O)O [Batch B710666] |
| 0.2 ppm | 0.1 ppm | CN(C)C(=O)c1cc2cnc(Nc3ccc(N4CCNCC4)cn3)nc2n1C1CCCC1.O=C(O)CCC(=O)O [Batch B710668] |
| 0.1 ppm | <0.1 ppm | CN(C)C(=O)c1cc2cnc(Nc3ccc(N4CCNCC4)cn3)nc2n1C1CCCC1.O=C(O)CCC(=O)O [Batch B710669] |
| 0.1 ppm | <0.1 ppm | CN(C)C(=O)c1cc2cnc(Nc3ccc(N4CCNCC4)cn3)nc2n1C1CCCC1.O=C(O)CCC(=O)O [Batch B711439] |
| 0.1 ppm | 0.9 ppm | CN(C)C(=O)c1cc2cnc(Nc3ccc(N4CCNCC4)cn3)nc2n1C1CCCC1.O=C(O)CCC(=O)O [Batch B711440] |
| 0.2 ppm | <0.1 ppm | CN(C)C(=O)c1cc2cnc(Nc3ccc(N4CCNCC4)cn3)nc2n1C1CCCC1.O=C(O)CCC(=O)O [Batch B711866] |
|  | <0.1 ppm | CN(C)C(=O)c1cc2cnc(Nc3ccc(N4CCNCC4)cn3)nc2n1C1CCCC1.O=C(O)CCC(=O)O [Batch B711868] |
